Experimental data from patent US20200087269A1, “PROCESS FOR THE PRODUCTION OF OZANIMOD” (EGIS GYOGYSZERGYAR ZRT., priority 2017, published 2020).

How the values were obtained:
[1] = Dynamic vapour sorption (DVS) measurement; assay type: physicochemical; settings: 25° C.
Method: Dynamic Vapour Sorption (DVS)
Device: TA Q5000SA dynamic vapour sorption analyser (DVS) Atmosphere: Flowing nitrogen Carrier gas flow rate: 200 mL/min N2
Balance house flow rate: 10 mL/min N2 Temperature maintained • 35° C. in balance house: Crucible type: Platinum 100 μl, open Measuring method: Custom
Measuring temperature: 25° C., isotherm Measurement range: Between 0% and 95% RH Initial relative humidity: 20% RH Measurement phases: Desorption-adsorption-desorption Step size: 5% RH Mass constant criterion: ≤0.01% for 5 minutes Maximum step length: 360 minutes Sampling frequency: 5 sec/point Number of cycles: 2
The dynamic vapour sorption (DVS) measurement of the ozanimod base Form I polymorph according to example 6

[2] = X-ray powder diffraction after two DVS cycles (polymorph stability to humidity); assay type: physicochemical
Method: FIG. 5: The x-ray powder diffractogram of the ozanimod base Form I form after two DVS cycles (see example 6).
The x-ray powder diffraction measurements were performed as follows:
Device: PANalytical Empyrean x-ray powder diffractometer Measurement alignment: Transmission
Type: Empyrean long fine focussing, high resolution tube
Divergence slit: Fixed slit 1/2° Mirror: Focussing elliptical mirror Soller slit: 0.04 rad Diffusion inhibitor slit: Fixed slit 1/2°
Diffusion inhibitor slit: Programmable slit in fixed mode: 1/2° Soller slit: 0.04 rad
Type: Reflection-transmission, with rotatable sample holders Sample rotation speed: 1 rotation/second Direct beam catcher (“beam knife”): Transmission
Type: PIXcel 3D 1×1 area detector Operation mode: Scanning line detector (ID) operation mode Active detector window size: 3.3473° Sample preparation: samples placed between two Mylar sheets, without pulverising
Temperature: room temperature Accelerating voltage: 45 kV Anode heating current: 40 mA Scanning method: continuous (θ/θ) scanning Measurement range: 2.0000-34.9964° 2θ
Step duration: 109.650 seconds No of measurement cycles: 1 Measurement duration: ˜20 minutes

## CC(C)Oc1ccc(-c2nc(-c3cccc4c3CC[C@@H]4NCCO)no2)cc1C#N [ozanimod base Form I polymorph, ozanimod]
[1]; DVS, 0-95% RH
  hygroscopicity: slightly hygroscopic
[1]; second DVS cycle
  sorption isotherm on repeating the cycle: did not change
[1]; under 95% relative humidity, first cycle
  mass increase of the sample: 0.6%
[2]; 25° C.
  stability of the polymorph form / sensitivity to humidity: stable at 25° C., and not sensitive to humidity
[2]; according to applicant's tests
  influence of the humidity of the air on the stability of the crystals: does not influence the stability of the crystals
  polymorphic nature under air humidity: does not change
[2]; after two DVS cycles, 25° C., 0-95% RH
  crystal structure after the two DVS cycles (x-ray powder diffractogram, FIG. 5 vs FIG. 3): unchanged
